According to EP2605769B1, “BENZOQUINONE DERIVATIVES FOR THE TREATMENT OF MITCHONDRIAL EYE DISEASES” (Santhera Pharmaceuticals (Schweiz) AG, priority 2010, dated 2012):
Marks after values point to notes of the source that are not given here.

Tests used:
C57BL/6J mice = assay: Mouse model of intravitreal rotenone injection, histopathological analyses of retinal degeneration, first study; type: in vivo; conditions: ± SEM; for Gliosis: GFAP immunostaining RFU; for Gliosis / Retinal thickness: 7 days post-injection; for Glutamine-synthetase: GS immunostaining RFU; for Glutamine-synthetase / RGC number: 1 day post-injection
Source text: This mouse model is used to assess the therapeutic potential of compounds in eye disorders characterized by mitochondrial dysfunction such as LHON, DOA, macular degeneration, retinopathy, and complex I deficiency. It is a widely accepted in vivo model based on single-eye intravitreal injection of the mitochondrial complex I inhibitor rotenone in the adult mouse. Intravitreal injection of rotenone induces neurotoxicity through mitochondrial complex I dysfunction in the retina which is the main molecular dysfunction […]. […] Histological analysis includes quantitative measurement of the retinal thickness (whole retina and individual layers), RGC apoptosis and cell death, oxidative stress, glutamine synthetase expression, and gliosis. The non-injected eye is used as a within subject, i.e. intraindividual, control. Male wild-type C57BL/6J mice (7 weeks old, about 25 g body weight) are individually housed in Makrolon type II cages with standard bedding and free access to food and water under a regular 12-hours light-dark cycle (8 a.m. to 8 p.m.). […] The injection is performed over a period of 2 min and the needle is kept in place for an additional 3 min, after which it is gently removed. Sterile surgical glue (Histoacryl, BRAUN/Aesculap AG, Germany) is used to seal the site of injection and a sterile antimicrobial ophtalmic ointment (Neosporin, GlaxoSmithKline, UK) is applied to the injected eye to avoid any infection. […] The eye balls are removed, retinas are dissected, fixed for an additional 2 h at 4°C, incubated in PB 0.1 M and 30% sucrose overnight, frozen in optimal cutting temperature compound (O.C.T., Tissue-Tek, Miles Laboratories, Elkhart, IN, USA), sliced at 14 µm, and collected onto glass slides for immunostaining. Immunostaining is performed accordingly to conventional method using multiple primary antibodies. Fluorescent-conjugated secondary antibodies and DAPI are used for visualization under a fluorescence microscope. All procedures are performed in accordance with the Swiss regulation and under a license approved by the "Kantonales Veterinäramt Basel-Land". Results: […] Table 5 In Table 5, the histological data are expressed as % of sham (DMSO) injected control ± SEM. […] IA 400 means a pretreatment with Compound IA at 400 mg/kg, similarily IA 2000 means a pretreatment with Compound IA at 2000 mg/kg. Statistical significance relative to vehicle + rotenone group is p ≤ 0.05 (*), p ≤ 0.01 (**). n is the number of retinas per group.

[1] = rats, cited from earlier work
[2] = Cytotoxicity assay (WST-1); type: cell-based, human; conditions: human, hepg2 cells, Hep-G2 cells, 24 hours exposure, read-out: TC50
Source text: This assay investigates cytotoxicity which is defined as the cell-killing property of a chemical compound, independent from the mechanisms of cell death. The HepG2 hepatoblastoma cell line is one of the most common human cell lines for hepatotoxicity studies. […] This assay measures metabolic activity of living cells using the WST-1 cell proliferation reagent (Roche Diagnostics). The tetrazolium salt WST-1 is cleaved to water soluble formazan by cellular enzymes. An expansion in the number of viable cells results in an increase in the overall activity of mitochondrial dehydrogenases in the sample. This augmentation in enzyme activity leads to an increase in the amount of formazan dye formed, which directly correlates to the number of metabolically active cells in the culture. The formazan dye produced by metabolically active cells is directly quantified in a scanning multiwell spectrophotometer by measuring the absorbance of the formazan dye solution between 420 and 480 nm. Healthy HepG2 cells, when maintained in culture, continuously divide and multiply over time. A toxic chemical, regardless of site and mechanism of action, will interfere with this process and result in the reduction of the growth rate reflected in the cell number.
Experimental Procedure: Hep-G2 cells are seeded into a 96-well microplate and maintained in culture for 24 hours. They are then exposed to the test compound over a range of eight concentrations. After 24 hours exposure, the cells are incubated in presence of reagent WST-1 for 30 min before measuring the absorbance of the formazan dye formed. Cytotoxicity is expressed as a concentration dependent reduction of the conversion formazan dye formation due to a decrease in cell proliferation as compared to untreated cells. The TC50 (Toxic Concentration 50%), is defined as the concentration of tested compound required to reduce the cellular viability by 50% relative to the control culture. The lower the TC50 value, the higher is the cytotoxic potential of the test compound. […]

[3] = 400 mg/kg pretreatment 3 weeks + rotenone
[4] = 2000 mg/kg pretreatment 3 weeks + rotenone
[5] = oral dose of 10 mg/kg, Torii et al.

| SMILES | Gliosis (C57BL/6J mice; 400 mg/kg + rotenone) | Glutamine-synthetase (C57BL/6J mice; 400 mg/kg + rotenone) | RGC number (C57BL/6J mice; [3]) | Retinal thickness (C57BL/6J mice; [3]) | Gliosis (C57BL/6J mice; 2000 mg/kg + rotenone) | Glutamine-synthetase (C57BL/6J mice; 2000 mg/kg + rotenone) | RGC number (C57BL/6J mice; [4]) | Retinal thickness (C57BL/6J mice; [4]) | brain- to-plasma ratio ([1]; oral 100 mg/kg, Nagai et al) | levels in the brain of total idebenone (including metabolites) [1, 5] | plasma levels of total idebenone (including metabolites, by radioactivity) [1, 5] | CC50 at 24 h [2] |
| --- | --- | --- | --- | --- | --- | --- | --- | --- | --- | --- | --- | --- |
| COC1=C(OC)C(=O)C(CCCCCCCCCCO)=C(C)C1=O [Compound IA, Idebenone] | 112.7 ± 11.9 * (n=3) % of sham (DMSO) injected control | 98.5 ± 1.9 (n=5) % of sham (DMSO) injected control | 94.6 ± 3.2 ** (n=3) % of sham (DMSO) injected control | 84.3 ± 2.9 ** (n=3) % of sham (DMSO) injected control | 134.7 ± 10.7* (n=3) % of sham (DMSO) injected control | 99 ± 2.9 * (n=6) % of sham (DMSO) injected control | 101.3 ± 11.3 (n=3) % of sham (DMSO) injected control | 76.9 ± 10.1 (n=4) % of sham (DMSO) injected control | 1-2% | 10 ng/mL | approximately 1000 ng/ml | – |
| COC1=C(OC)C(=O)C(CCCCCCCCCC(C)(C)O)=C(C)C1=O [Compound IC] | – | – | – | – | – | – | – | – | – | – | – | 71.9 µM |
